Assay results reported in patent US20210395239A1 (Hoffmann-La Roche Inc., priority 2018, published 2021).

Target: T1, hTLR9 (Homo sapiens, UniProt Q9NR96)
T1 sequence (Q9NR96 26-1032): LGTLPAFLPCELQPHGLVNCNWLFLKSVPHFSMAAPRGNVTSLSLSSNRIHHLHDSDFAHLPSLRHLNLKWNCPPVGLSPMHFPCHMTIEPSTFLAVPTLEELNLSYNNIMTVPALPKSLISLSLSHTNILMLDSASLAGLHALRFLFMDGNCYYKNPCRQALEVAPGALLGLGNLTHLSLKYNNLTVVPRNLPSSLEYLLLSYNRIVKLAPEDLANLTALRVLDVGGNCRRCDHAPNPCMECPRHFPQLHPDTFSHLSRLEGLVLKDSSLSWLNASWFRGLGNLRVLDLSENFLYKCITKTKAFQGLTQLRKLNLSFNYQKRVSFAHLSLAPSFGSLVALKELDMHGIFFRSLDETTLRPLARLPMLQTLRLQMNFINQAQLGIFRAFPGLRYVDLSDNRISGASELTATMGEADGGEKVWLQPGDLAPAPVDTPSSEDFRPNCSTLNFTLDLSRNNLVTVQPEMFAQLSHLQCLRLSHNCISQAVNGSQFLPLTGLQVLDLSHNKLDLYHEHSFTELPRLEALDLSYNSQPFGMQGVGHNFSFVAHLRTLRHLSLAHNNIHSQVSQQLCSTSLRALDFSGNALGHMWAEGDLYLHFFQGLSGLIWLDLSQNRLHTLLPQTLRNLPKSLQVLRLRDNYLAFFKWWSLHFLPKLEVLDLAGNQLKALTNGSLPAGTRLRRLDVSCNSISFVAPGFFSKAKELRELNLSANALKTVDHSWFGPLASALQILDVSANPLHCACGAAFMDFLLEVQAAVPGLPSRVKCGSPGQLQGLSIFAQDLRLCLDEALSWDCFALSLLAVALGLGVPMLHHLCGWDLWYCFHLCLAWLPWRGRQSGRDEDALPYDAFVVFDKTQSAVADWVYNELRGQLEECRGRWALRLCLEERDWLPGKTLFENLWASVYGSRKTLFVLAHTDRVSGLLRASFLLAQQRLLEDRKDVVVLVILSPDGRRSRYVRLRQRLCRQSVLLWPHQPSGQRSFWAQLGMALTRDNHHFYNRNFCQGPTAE
Assay: HEK293-Blue-hTLR-9 cells assay (SEAP reporter, ODN2006 stimulation)
Format: cell-based
Parameters: host or cells: HEK293 (HEK-Blue hTLR9)
Details: HEK293-Blue-hTLR9 cells, ODN2006, 20 hrs; read-out: HEK/hTLR9 IC50
Method in brief: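 HEK293-Blue-hTLR9 cells with NF-κB/AP-1-driven SEAP reporter treated with serially diluted compound (1% DMSO final) plus ODN2006 for 20 h at 37 °C. Supernatant SEAP measured with QUANTI-Blue, 2 h at 37 °C, absorbance 620–655 nm; antagonism seen as reduced reporter signal.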

Row | SMILES | IC50
1 | C[C@@H]1CN(c2ccc(C#N)c3ncccc23)C[C@H](CN2CCN(c3ccc([C@H]4CNCCO4)cc3)CC2)O1 [Example 20, 5-[(2R,6S)-2-methyl-6-[[4-[4-[(2S)-morpholin-2-yl]phenyl]piperazin-1-yl]methyl]morpholin-4-yl]quinoline-8-carbonitrile] | 96 nM
2 | C[C@@H]1CN(c2ccc(C#N)c3ncccc23)C[C@H](CN2CCN(c3cc(N4CCN(C)CC4)ncn3)CC2)O1 [Example 21, 5-[(2R,6S)-2-methyl-6-[[4-[6-(4-methylpiperazin-1-yl)pyrimidin-4-yl]piperazin-1-yl]methyl]morpholin-4-yl]quinoline-8-carbonitrile] | 219 nM
3 | C[C@@H]1CN(c2ccc(C#N)c3ncccc23)C[C@H](CN2CCN(c3ccnc(N4CCN(C)CC4)n3)CC2)O1 [Example 22, 5-((2R,6S)-2-methyl-6-((4-(2-(4-methylpiperazin-1-yl)pyrimidin-4-yl)piperazin-1-yl)methyl)morpholino)quinoline-8-carbonitrile] | 45 nM
4 | C[C@@H]1CN(c2ccc(C#N)c3ncccc23)C[C@H](CN2CCN(c3ccnc(N[C@H]4CNC[C@H]4F)n3)CC2)O1 [Example 24, 5-[(2S,6R)-2-[[4-[2-[[(3S,4R)-4-fluoropyrrolidin-3-yl]amino]pyrimidin-4-yl]piperazin-1-yl]methyl]-6-methyl-morpholin-4-yl]quinoline-8-carbonitrile] | 32 nM
5 | C[C@@H]1CN(c2ccc(C#N)c3ncccc23)C[C@H](CN2CCN(c3ccnc(N4CCNCC(O)C4)n3)CC2)O1 (stereo partly drawn) [Example 25, 5-[(2S,6R)-2-[[4-[2-(6-hydroxy-1,4-diazepan-1-yl)pyrimidin-4-yl]piperazin-1-yl]methyl]-6-methyl-morpholin-4-yl]quinoline-8-carbonitrile] | 33 nM
6 | C[C@@H]1CN(c2ccc(C#N)c3ncccc23)C[C@H](CN2CCN(c3ccnc(N4CCN[C@@H](CO)C4)n3)CC2)O1 [Example 29, 5-[(2S,6R)-2-[[4-[2-[(3R)-3-(hydroxymethyl)piperazin-1-yl]pyrimidin-4-yl]piperazin-1-yl]methyl]-6-methyl-morpholin-4-yl]quinoline-8-carbonitrile] | 51 nM
7 | C[C@@H]1CN(c2ccc(C#N)c3ncccc23)C[C@H](CN2CCN(c3ccnc(OCCN(C)C)n3)CC2)O1 [Example 30, 5-[(2S,6R)-2-[[4-[2-[2-(dimethylamino)ethoxy]pyrimidin-4-yl]piperazin-1-yl]methyl]-6-methyl-morpholin-4-yl]quinoline-8-carbonitrile] | 250 nM
8 | C[C@@H]1CN(c2ccc(C#N)c3ncccc23)C[C@H](CN2CCN(c3ccnc(N4CCN(C(=O)[C@@H]5CCCN5)CC4)n3)CC2)O1 [Example 31, 5-[(2R,6S)-2-methyl-6-[[4-[2-[4-[(2S)-pyrrolidine-2-carbonyl]piperazin-1-yl]pyrimidin-4-yl]piperazin-1-yl]methyl]morpholin-4-yl]quinoline-8-carbonitrile] | 46 nM
9 | C[C@@H]1CN(c2ccc(C#N)c3ncccc23)C[C@H](CN2CCN(c3ccnc(N4CCN(C(=O)CN(C)C)CC4)n3)CC2)O1 [Example 32, 5-[(2S,6R)-2-[[4-[2-[4-[2-(dimethylamino)acetyl]piperazin-1-yl]pyrimidin-4-yl]piperazin-1-yl]methyl]-6-methyl-morpholin-4-yl]quinoline-8-carbonitrile] | 73 nM
10 | C[C@@H]1CN(c2ccc(C#N)c3ncccc23)C[C@H](CN2CCN(c3ccnc(N4CCN(C(=O)C5CCN5)CC4)n3)CC2)O1 (stereo partly drawn) [Example 34, 5-[(2S,6R)-2-[[4-[2-[4-(azetidine-2-carbonyl)piperazin-1-yl]pyrimidin-4-yl]piperazin-1-yl]methyl]-6-methyl-morpholin-4-yl]quinoline-8-carbonitrile] | 71 nM
11 | C[C@@H]1CN(c2ccc(C#N)c3ncccc23)C[C@H](CN2CCN(c3cccc(N[C@H]4CNC[C@@H]4F)n3)CC2)O1 [Example 35, 5-[(2S,6R)-2-[[4-[6-[[(3S,4S)-4-fluoropyrrolidin-3-yl]amino]-2-pyridyl]piperazin-1-yl]methyl]-6-methyl-morpholin-4-yl]quinoline-8-carbonitrile] | 147 nM
12 | C[C@@H]1CN(c2ccc(C#N)c3ncccc23)C[C@H](CN2CCN(c3cccc(N[C@H]4CNC[C@H]4F)n3)CC2)O1 [Example 37, 5-[(2S,6R)-2-[[4-[6-[[(3S,4R)-4-fluoropyrrolidin-3-yl]amino]-2-pyridyl]piperazin-1-yl]methyl]-6-methyl-morpholin-4-yl]quinoline-8-carbonitrile] | 234 nM

The remaining lines, values ahead:

Row | IC50 | SMILES
13 | 232 nM | C[C@@H]1CN(c2ccc(C#N)c3ncccc23)C[C@H](CN2CCN(c3ccnc(N4CC(N)C4)n3)CC2)O1 [Example 23, 5-[(2S,6R)-2-[[4-[2-(3-aminoazetidin-1-yl)pyrimidin-4-yl]piperazin-1-yl]methyl]-6-methyl-morpholin-4-yl]quinoline-8-carbonitrile]
14 | 32 nM | CO[C@H]1CN(c2nccc(N3CCN(C[C@H]4CN(c5ccc(C#N)c6ncccc56)C[C@@H](C)O4)CC3)n2)C[C@@H]1N [Example 26, 5-[(2S,6R)-2-[[4-[2-trans-(3-amino-4-methoxy-pyrrolidin-1-yl)pyrimidin-4-yl]piperazin-1-yl]methyl]-6-methyl-morpholin-4-yl]quinoline-8-carbonitrile]
15 | 43 nM | C[C@@H]1CN(c2ccc(C#N)c3ncccc23)C[C@H](CN2CCN(c3ccnc(N4CCC(N)CC4)n3)CC2)O1 [Example 27, 5-[(2S,6R)-2-[[4-[2-(4-amino-1-piperidyl)pyrimidin-4-yl]piperazin-1-yl]methyl]-6-methyl-morpholin-4-yl]quinoline-8-carbonitrile]
16 | 65 nM | C[C@@H]1CN(c2ccc(C#N)c3ncccc23)C[C@H](CN2CCN(c3ccnc(NC4CNC4)n3)CC2)O1 [Example 28, 5-[(2S,6R)-2-[[4-[2-(azetidin-3-ylamino)pyrimidin-4-yl]piperazin-1-yl]methyl]-6-methyl-morpholin-4-yl]quinoline-8-carbonitrile]
17 | 116 nM | C[C@@H]1CN(c2ccc(C#N)c3ncccc23)C[C@H](CN2CCN(c3cccc(N4CCN(C)CC4)n3)CC2)O1 [Example 33, 5-[(2R,6S)-2-methyl-6-[[4-[6-(4-methylpiperazin-1-yl)-2-pyridyl]piperazin-1-yl]methyl]morpholin-4-yl]quinoline-8-carbonitrile]
18 | 118 nM | C[C@@H]1CN(c2ccc(C#N)c3ncccc23)C[C@H](CN2CCN(c3cccc(N4CCC(N)CC4)n3)CC2)O1 [Example 36, 5-[(2S,6R)-2-[[4-[6-(4-amino-1-piperidyl)-2-pyridyl]piperazin-1-yl]methyl]-6-methyl-morpholin-4-yl]quinoline-8-carbonitrile]
19 | 97 nM | C[C@@H]1CN(c2ccc(C#N)c3ncccc23)C[C@H](CN2CCN(c3cccc(NC4CNC4)n3)CC2)O1 [Example 38]
20 | 134 nM | C[C@@H]1CN(c2ccc(C#N)c3ncccc23)C[C@H](CN2CCN(c3cccc(N4CC(N)C(F)C4)n3)CC2)O1 (stereo partly drawn) [Example 40, 5-[(2S,6R)-2-[[4-[6-(3-amino-4-fluoro-pyrrolidin-1-yl)-2-pyridyl]piperazin-1-yl]methyl]-6-methyl-morpholin-4-yl]quinoline-8-carbonitrile]
21 | 150 nM | C[C@@H]1CN(c2ccc(C#N)c3ncccc23)C[C@H](CN2CCN(c3cccc(N4CCNCC(O)C4)n3)CC2)O1 (stereo partly drawn) [Example 41, 5-[(2S,6R)-2-[[4-[6-(6-hydroxy-1,4-diazepan-1-yl)-2-pyridyl]piperazin-1-yl]methyl]-6-methyl-morpholin-4-yl]quinoline-8-carbonitrile]
22 | 147 nM | CO[C@H]1CN(c2cccc(N3CCN(C[C@H]4CN(c5ccc(C#N)c6ncccc56)C[C@@H](C)O4)CC3)n2)C[C@H]1N [Example 42, 5-[(2S,6R)-2-[[4-[6-[(3R,4S)-3-amino-4-methoxy-pyrrolidin-1-yl]-2-pyridyl]piperazin-1-yl]methyl]-6-methyl-morpholin-4-yl]quinoline-8-carbonitrile]
23 | 119 nM | COC1CN(c2ccc(N3CCN(C[C@H]4CN(c5ccc(C#N)c6ncccc56)C[C@@H](C)O4)CC3)cn2)CC1N (stereo partly drawn) [Example 43, 5-[(2S,6R)-2-[[4-[6-(3-amino-4-methoxy-pyrrolidin-1-yl)-3-pyridyl]piperazin-1-yl]methyl]-6-methyl-morpholin-4-yl]quinoline-8-carbonitrile]
